# Reference: patent publication US20180362654A1, “Methods for Reducing or Preventing Growth of Tumors Resistant to EGFR and/or ErbB3 Blockade” (Regeneron Pharmaceuticals, Inc., priority 2015, published 2018)
# Tests used:
# ERK = ERK activation by western blot (phospho-ERK); assay type: cell-based, human; settings: REGN1400 5 μg/ml, REGN955 10 μg/ml, AZD4547 25 nM
# Description: (§1) For analysis of cell signaling by western blot, tumor cells were treated with the following reagents: ErbB3 blocking REGN1400, EGFR blocking antibody REGN955, MEK inhibitor GSK1120212 (Selleckchem), FGFR TKI AZD4547 (Selleckchem), MET TKI PHA665752 (Sigma), PI3K inhibitor BYL719, human NRG1 (R&D Systems), human EGF (R&D Systems). Following treatment, cell lysates were subjected to western blot with the following antibodies: phospho-ErbB3 (Cell Signaling Technology (CST), cat. #4561), EGFR (CST, cat. #2646), phospho-EGFR (CST, cat. #2234), Akt (CST, cat. #9272), phospho-Akt (CST, cat. #4060), ERK (CST, cat. #4695), phospho-ERK (CST, cat. #4370), MET (CST, cat. #8198), phospho-MET (CST, cat. #3077), ErbB3 (CST, cad.#4754), phospho-FGFR (CST, cat. #3476).
# AKT = AKT activation by western blot (phospho-AKT); assay type: cell-based, human; settings: REGN1400 5 μg/ml, REGN955 10 μg/ml, AZD4547 25 nM
# Description: as §1
# FGFR3 = FGFR3 phosphorylation by anti-phosphotyrosine immunoprecipitation and western blot; assay type: cell-based, human; settings: FaDu V2 cells; 25 nM AZD4547; 1 hour
# Description: FIGS. 4A-4F provide evidence that FGFR3 is activated in FaDu resistant variant cell lines and maintains ERK signaling upon EGFR blockade. […] Active RTKs of note are boxed and labeled. The unlabeled spots on the corners of the membranes are positive controls. […] The presence of FGFR3 and Src in the immunoprecipitates was assessed by western blot. […] Following treatment, cell lysates were subjected to western blot with antibodies against phospho-ERK, ERK, phospho-MET and MET. […] Following treatment, cell lysates were subjected to immunoprecipitation with anti-phosphotyrosine antibody 4G10 conjugated to agarose beads. The presence of FGFR3 and Src in the immunoprecipitates was assessed by western blot. […] Following treatment, cell lysates were subjected to western blot with antibodies against phospho-ERK, ERK, phospho-AKT and AKT.
# To assess the tyrosine phosphorylation status of FGFR3-TACC3 fusion proteins in FaDu V1 and V2 cell lines, cells growing in 10 cm dishes were lysed in 1 ml of buffer (150 mM NaCl/20 mM Tris, pH 7.5/1% Triton X-100) containing Halt Protease and Phosphatase Inhibitor Cocktail (Thermo Scientific). […]
# NCI-H1975 cells = assay: Tumor cell growth assay (MTS), NCI-H1975 cells expressing FGFR3-TACC3 fusion proteins; assay type: cell-based, human; settings: 72 hours, 50 nM AZD9291
# Description: (§2) The bar graphs show the relative cell growth in each treatment group, as determined by MTS assay. Error bars show the standard deviation, n=8. […] The bar graphs show the relative cell growth in each treatment group, as determined by MTS assay. Error bars show the SD, n=8. FIGS. 11C-11D respectively show SNU1076 or Detroit 562 cells expressing wild-type FGFR3 or FGFR3-TACC3 fusion proteins that were grown for 72 hours in the presence of vehicle or 5 μM PI3K inhibitor BYL719. The bar graphs show the relative cell growth in each treatment group, as determined by MTS assay. Error bars show the standard deviation, n=8. […] Cell lysates were prepared and subjected to western blot with antibodies against phospho-ERK, ERK, phospho-AKT, or AKT.
# (§3) To assess tumor cell growth, 2-3,000 cells were plated in 96-well plates (n=8 replicate wells per treatment group) in serum-containing medium. The day after plating, the baseline (0 hour) cell number was determined by MTS assay using the CellTiter96 Aqueous One Solution Cell Proliferation Assay (Promega). […] At 72 hours, the final cell number was determined by MTS assay. The relative cell growth for each treatment group was determined by subtracting the baseline MTS reading from the final MTS reading. […]
# SNU1076 cells = assay: Tumor cell growth assay (MTS), SNU1076 cells expressing FGFR3-TACC3 fusion proteins; assay type: cell-based, human; settings: 72 hours, 5 μM BYL719
# Description: as §2, §3
# Detroit 562 cells = assay: Tumor cell growth assay (MTS), Detroit 562 cells expressing FGFR3-TACC3 fusion proteins; assay type: cell-based, human; settings: 72 hours, 5 μM BYL719
# Description: as §2, §3
# MET = biological target: T1, MET (Homo sapiens, UniProt P08581); assay: MET phosphorylation by western blot; assay type: cell-based; settings: FaDu V2 cells; 100 nM PHA665752; 30 minutes
# T1 construct: Fadu V2 cells that were treated for 30 minutes with control antibody; endogenous in cells
# T1 sequence (P08581 25-1390): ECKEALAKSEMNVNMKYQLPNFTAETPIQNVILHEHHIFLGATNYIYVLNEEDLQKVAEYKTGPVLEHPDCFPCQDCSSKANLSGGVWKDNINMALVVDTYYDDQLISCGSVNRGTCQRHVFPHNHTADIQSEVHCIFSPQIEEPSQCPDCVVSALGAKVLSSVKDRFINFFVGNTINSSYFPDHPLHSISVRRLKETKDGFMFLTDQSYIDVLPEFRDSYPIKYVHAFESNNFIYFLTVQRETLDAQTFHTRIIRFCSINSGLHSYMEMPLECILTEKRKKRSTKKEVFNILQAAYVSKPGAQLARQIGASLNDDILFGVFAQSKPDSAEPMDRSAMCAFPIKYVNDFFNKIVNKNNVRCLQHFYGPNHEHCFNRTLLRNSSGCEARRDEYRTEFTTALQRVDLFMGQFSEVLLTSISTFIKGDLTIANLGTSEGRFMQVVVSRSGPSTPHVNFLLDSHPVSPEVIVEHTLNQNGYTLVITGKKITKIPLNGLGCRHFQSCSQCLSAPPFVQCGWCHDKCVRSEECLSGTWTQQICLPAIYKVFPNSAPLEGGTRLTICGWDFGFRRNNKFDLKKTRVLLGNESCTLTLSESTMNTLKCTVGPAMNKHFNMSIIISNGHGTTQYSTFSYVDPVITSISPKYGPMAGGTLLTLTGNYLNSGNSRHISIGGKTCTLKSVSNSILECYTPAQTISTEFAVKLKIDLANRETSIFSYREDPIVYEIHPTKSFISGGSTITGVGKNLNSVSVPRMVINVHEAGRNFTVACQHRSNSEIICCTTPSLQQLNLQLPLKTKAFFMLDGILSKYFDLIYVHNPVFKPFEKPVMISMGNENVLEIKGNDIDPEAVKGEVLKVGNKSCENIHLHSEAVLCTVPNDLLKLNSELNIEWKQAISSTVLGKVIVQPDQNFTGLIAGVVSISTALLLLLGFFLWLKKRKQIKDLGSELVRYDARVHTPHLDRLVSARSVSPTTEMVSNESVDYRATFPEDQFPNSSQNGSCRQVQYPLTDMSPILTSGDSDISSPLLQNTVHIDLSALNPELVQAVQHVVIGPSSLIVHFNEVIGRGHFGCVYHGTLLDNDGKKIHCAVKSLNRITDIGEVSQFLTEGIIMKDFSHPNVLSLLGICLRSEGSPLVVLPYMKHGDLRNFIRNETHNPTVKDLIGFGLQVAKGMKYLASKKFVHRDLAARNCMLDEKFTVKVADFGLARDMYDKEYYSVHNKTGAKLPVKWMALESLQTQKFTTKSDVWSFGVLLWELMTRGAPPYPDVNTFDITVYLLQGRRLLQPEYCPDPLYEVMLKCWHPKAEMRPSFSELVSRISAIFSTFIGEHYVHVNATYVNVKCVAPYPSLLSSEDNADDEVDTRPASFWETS
# Description: Following treatment, cell lysates were subjected to western blot with antibodies against phospho-ERK, ERK, phospho-MET and MET. […] Following treatment, cell lysates were subjected to western blot with the following antibodies: phospho-ErbB3 (Cell Signaling Technology (CST), cat. #4561), EGFR (CST, cat. #2646), phospho-EGFR (CST, cat. #2234), Akt (CST, cat. #9272), phospho-Akt (CST, cat. #4060), ERK (CST, cat. #4695), phospho-ERK (CST, cat. #4370), MET (CST, cat. #8198), phospho-MET (CST, cat. #3077), ErbB3 (CST, cad.#4754), phospho-FGFR (CST, cat. #3476).
# [1] = FaDu V2 cells, GSK1120212 100 nM, PHA665752 100 nM
smiles,measurement,setting,value
COc1cc(CCc2cc(NC(=O)c3ccc(N4CC(C)NC(C)C4)cc3)n[nH]2)cc(OC)c1 (stereo not shown) [AZD4547],inhibition of ERK activation,ERK; FaDu V1 cells,either no effect or a partial effect
same,inhibition of ERK activation,ERK; [1],either no effect or a partial effect
same,inhibition of AKT activation,AKT; FaDu V1 cells,no effect on AKT activation
same,inhibition of AKT activation,"AKT; FaDu V2 cells, GSK1120212 100 nM",no effect on AKT activation
same,inhibition of FGFR3 phosphorylation,FGFR3,completely blocked FGFR3 phosphorylation
C=CC(=O)Nc1cc(Nc2nccc(-c3cn(C)c4ccccc34)n2)c(OC)cc1N(C)CCN(C)C [AZD9291],growth inhibition in cells expressing FGFR3-TACC3 fusion proteins,NCI-H1975 cells,promote resistance
"Cc1nc(NC(=O)N2CCC[C@H]2C(N)=O)sc1-c1ccnc(C(C)(C)C(F)(F)F)c1 [BYL719, alpelisib]",growth inhibition in cells expressing FGFR3-TACC3 fusion proteins,SNU1076 cells,neither of the FGFR3-TACC3 fusion proteins was able to confer substantial resistance
same,growth inhibition in cells expressing FGFR3-TACC3 fusion proteins,Detroit 562 cells,neither of the FGFR3-TACC3 fusion proteins was able to confer substantial resistance
Cc1[nH]c(/C=C2\C(=O)Nc3ccc(S(=O)(=O)Cc4c(Cl)cccc4Cl)cc32)c(C)c1C(=O)N1CCC[C@@H]1CN1CCCC1 [PHA665752],inhibition of ERK activation,ERK; [1],did not inhibit ERK activation
same,inhibition of MET phosphorylation,MET,completely blocking MET phosphorylation
